{"source": "patent US20050279350A1", "about": "“Methods and apparatus for relieving headaches, rhinitis and other common ailments” (priority 1999, published 2005)", "key": {"human subjects": {"system": "human subjects", "experiment": "Effective and maximum tolerable nasal and oral carbon dioxide flow rates measured with laboratory apparatus", "format": "in vivo", "description": "(§1) The test device was a hand-held, multi-dose, disposable, dispenser that was approximately 3 to 4 inches long and 6/8 to ⅞ inches in diameter constructed as described above. The device consisted of a plastic twist-top flow regulator mounted on top of a pressurized steel cartridge containing liquid carbon dioxide. The tip of the flow regulator has a nosepiece that is the optimal size and configuration to place against and seal off a nostril for administration of the gas. In a number of subjects, the effective nasal and oral carbon dioxide flow rates, and maximum tolerable nasal and oral flow rates, were measured using a laboratory apparatus. This apparatus consisted of a flow regulator connected via tubing to a flow meter and a large tank of carbon dioxide. These flow data were used, together with the number of seconds gas was administered during therapy, to calculate the estimated dose of gas in milliliters.\nInitially, the effective nasal and oral, and maximum tolerable nasal and oral carbon dioxide flow rates were measured in seven subjects using a laboratory apparatus. The flow rate selected that is effective or the maximum tolerable rate varies with the individual. At low flow rates, the presence of the carbon dioxide produces a “tingling” sensation similar to that produced during drinking of carbonated beverages that inadvertently enter the nasal passages e.g., “bubbles up the nose”. This is the effective rate and the tingling is a welcome sensation because it usually coincides with immediate relief of symptoms. Above a certain subjectively determined flow rate the sensation becomes unpleasant, which may be described as a “stinging” or “burning” sensation. At a still higher flow rate (maximum tolerable rate), the stinging sensation becomes intolerable and subjects remove the device from their nostril. Also, subjects are more sensitive to the first does of a series for one attack; subsequent doses give less or no sensation. […] The typical effective rate nasally was 1 to 5 ml/sec and 5 to 10 ml/sec orally."}, "[1]": {"system": "human subjects with allergies (allergic rhinitis)", "format": "in vivo", "details": "for 24-hr. Recur Rate / After Effects / Symptom Free, Minutes Post-Treatment / Symptom, Relief, Minutes Post-Treatment: moderate, severe; for Est. Rate / Est. Total Dose / Number of Doses / Single Dose Duration / Total Dose / Total Treatment Time: self-selected effective dose", "description": "as §1\nOf the total of 15 subjects included in the analysis, 11 used the treatment for 35 headaches and 9 subjects used it for 9 allergy attacks. […] subjects treated both headache and allergy but on different days. The subjects included adults, elderly, and children of both sexes in good general health, having mild, moderate, and severe headaches or having allergies to plant, animal, or airborne allergens. The device was used to treat migraine and tension-type headaches, jaw pain, and allergies (allergic rhinitis, with symptoms that included sinus congestion, sneezing, and itchy throat and eyes). There was no limitation on the duration of symptoms before treatment with the device. Subjects with no prior use of the device and those who have used it (to treat allergy symptoms) previously were included.\nCarbon dioxide (100%) was administered nasally by the subject for a few seconds via a nostril to fill the nasal passages while holding their breath, or taking breaths of room air occasionally if the dose was lengthy. The gas exited the other nostril. Such nasal administration is similar to presently marketed nasal inhalers except that the administered gas was not inhaled. […] Subjects took as many doses as they needed for relief. It is important to note that there were no number of doses, duration of dose, time between doses, or gas flow rate specified for the user. Subjects chose their own regimen for symptom relief. Similarly, in medical practice today, gas therapy is a “titrate to effect” therapy without a specified dosage.\nFor allergy, the rating of the intensity level depends on the extent to which the allergy interferes with the ability to function. […] The same outcome measures as for headache were used for allergy."}, "[2]": {"details": "subject five, experience w/device 0"}, "[3]": {"details": "subject four, experience w/device 0"}, "[4]": {"details": "subject one, experience w/device >1000"}, "[5]": {"details": "subject six, experience w/device 0"}, "[6]": {"details": "subject three, experience w/device >1000"}, "[7]": {"details": "subject two, experience w/device 0"}, "[8]": {"details": "subject, experience w/device >10"}, "[9]": {"details": "Allergy (N = 8), more stringent outcome measure definitions"}, "[10]": {"details": "Allergy (N = 8), more stringent outcome measure definitions, 1 min post-treatment"}, "[11]": {"details": "Allergy (N = 8), more stringent outcome measure definitions, 5 min post-treatment"}, "[12]": {"details": "Allergy (N = 8), more stringent outcome measure definitions, 15 min post-treatment"}, "[13]": {"details": "Allergy (N = 8), more stringent outcome measure definitions, 30 min post-treatment"}, "[14]": {"details": "Allergy (N = 9), mild, 1 min post-treatment"}, "[15]": {"details": "Allergy (N = 9), mild, 5 min post-treatment"}, "[16]": {"details": "Allergy (N = 9), mild, 15 min post-treatment"}, "[17]": {"details": "Allergy (N = 9), mild, 30 min post-treatment"}}, "note": "Like-named read-outs stand apart in the source and are kept apart here. Marks after values point to notes of the source that are not given here.", "data": [{"compound": "O=C=O", "note": "[carbon dioxide]", "values": [{"measurement": "tolerance of high flow rates, oral versus nasal", "setting": "human subjects; seven subjects", "value": "better tolerated orally than nasally"}, {"measurement": "Effective Nasal Rate", "setting": "human subjects; [2]", "value": "1 to 2", "unit": "mL/s"}, {"measurement": "Effective Oral Rate", "setting": "human subjects; [2]", "value": "5 to 10", "unit": "mL/s"}, {"measurement": "Max Tolerable Nasal Rate", "setting": "human subjects; [2]", "value": 3, "unit": "mL/s"}, {"measurement": "Max Tolerable Oral Rate", "setting": "human subjects; [2]", "value": ">10* ml/sec"}, {"measurement": "Effective Nasal Rate", "setting": "human subjects; [3]", "value": 2, "unit": "mL/s"}, {"measurement": "Effective Oral Rate", "setting": "human subjects; [3]", "value": 2, "unit": "mL/s"}, {"measurement": "Max Tolerable Nasal Rate", "setting": "human subjects; [3]", "value": 4, "unit": "mL/s"}, {"measurement": "Max Tolerable Oral Rate", "setting": "human subjects; [3]", "value": ">10* ml/sec"}, {"measurement": "Effective Nasal Rate", "setting": "human subjects; [4]", "value": "4 to 5", "unit": "mL/s"}, {"measurement": "Effective Oral Rate", "setting": "human subjects; [4]", "value": "5 to 10", "unit": "mL/s"}, {"measurement": "Max Tolerable Nasal Rate", "setting": "human subjects; [4]", "value": 10, "unit": "mL/s"}, {"measurement": "Max Tolerable Oral Rate", "setting": "human subjects; [4]", "value": ">10* ml/sec"}, {"measurement": "Effective Nasal Rate", "setting": "human subjects; [5]", "value": "<1", "unit": "mL/s"}, {"measurement": "Effective Oral Rate", "setting": "human subjects; [5]", "value": "5 to 10", "unit": "mL/s"}, {"measurement": "Max Tolerable Nasal Rate", "setting": "human subjects; [5]", "value": 2, "unit": "mL/s"}, {"measurement": "Max Tolerable Oral Rate", "setting": "human subjects; [5]", "value": ">10* ml/sec"}, {"measurement": "Effective Nasal Rate", "setting": "human subjects; [6]", "value": "4 to 5", "unit": "mL/s"}, {"measurement": "Effective Oral Rate", "setting": "human subjects; [6]", "value": "5 to 10", "unit": "mL/s"}, {"measurement": "Max Tolerable Nasal Rate", "setting": "human subjects; [6]", "value": 10, "unit": "mL/s"}, {"measurement": "Max Tolerable Oral Rate", "setting": "human subjects; [6]", "value": ">10* ml/sec"}, {"measurement": "Effective Nasal Rate", "setting": "human subjects; [7]", "value": "<1", "unit": "mL/s"}, {"measurement": "Effective Oral Rate", "setting": "human subjects; [7]", "value": ">10* ml/sec"}, {"measurement": "Max Tolerable Nasal Rate", "setting": "human subjects; [7]", "value": "<1", "unit": "mL/s"}, {"measurement": "Max Tolerable Oral Rate", "setting": "human subjects; [7]", "value": ">10* ml/sec"}, {"measurement": "Effective Nasal Rate", "setting": "human subjects; [8]", "value": "4 to 5", "unit": "mL/s"}, {"measurement": "Effective Oral Rate", "setting": "human subjects; [8]", "value": "5 to 10", "unit": "mL/s"}, {"measurement": "Max Tolerable Nasal Rate", "setting": "human subjects; [8]", "value": 10, "unit": "mL/s"}, {"measurement": "Max Tolerable Oral Rate", "setting": "human subjects; [8]", "value": ">10* ml/sec"}, {"measurement": "24-hr. Recur Rate", "setting": "[1]; [9]", "value": 50, "unit": "%"}, {"measurement": "After Effects", "setting": "[1]; [9]", "value": 0, "unit": "%"}, {"measurement": "Symptom Free, Minutes Post-Treatment", "setting": "[1]; [10]", "value": 25, "unit": "%"}, {"measurement": "Symptom, Relief, Minutes Post-Treatment", "setting": "[1]; [10]", "value": 25, "unit": "%"}, {"measurement": "Symptom Free, Minutes Post-Treatment", "setting": "[1]; [11]", "value": 63, "unit": "%"}, {"measurement": "Symptom, Relief, Minutes Post-Treatment", "setting": "[1]; [11]", "value": 75, "unit": "%"}, {"measurement": "Symptom Free, Minutes Post-Treatment", "setting": "[1]; [12]", "value": 88, "unit": "%"}, {"measurement": "Symptom, Relief, Minutes Post-Treatment", "setting": "[1]; [12]", "value": 100, "unit": "%"}, {"measurement": "Symptom Free, Minutes Post-Treatment", "setting": "[1]; [13]", "value": 88, "unit": "%"}, {"measurement": "Symptom, Relief, Minutes Post-Treatment", "setting": "[1]; [13]", "value": 100, "unit": "%"}, {"measurement": "After Effects", "setting": "[1]; Allergy (N = 9), mild", "value": 0, "unit": "%"}, {"measurement": "Symptom Free, Minutes Post-Treatment", "setting": "[1]; [14]", "value": 33, "unit": "%"}, {"measurement": "Symptom, Relief, Minutes Post-Treatment", "setting": "[1]; [14]", "value": 33, "unit": "%"}, {"measurement": "Symptom Free, Minutes Post-Treatment", "setting": "[1]; [15]", "value": 67, "unit": "%"}, {"measurement": "Symptom, Relief, Minutes Post-Treatment", "setting": "[1]; [15]", "value": 78, "unit": "%"}, {"measurement": "Symptom Free, Minutes Post-Treatment", "setting": "[1]; [16]", "value": 89, "unit": "%"}, {"measurement": "Symptom, Relief, Minutes Post-Treatment", "setting": "[1]; [16]", "value": 100, "unit": "%"}, {"measurement": "Symptom Free, Minutes Post-Treatment", "setting": "[1]; [17]", "value": 89, "unit": "%"}, {"measurement": "Symptom, Relief, Minutes Post-Treatment", "setting": "[1]; [17]", "value": 100, "unit": "%"}, {"measurement": "24-hr. Recur Rate", "setting": "[1]; Allergy (N = 9), mild, N=4 for this determination", "value": 50, "unit": "%"}, {"measurement": "Est. Rate", "setting": "[1]; Allergy-All", "value": 3, "unit": "mL/s"}, {"measurement": "Est. Total Dose", "setting": "[1]; Allergy-All", "value": 133, "unit": "mL"}, {"measurement": "Number of Doses", "setting": "[1]; Allergy-All", "value": "2 #"}, {"measurement": "Single Dose Duration", "setting": "[1]; Allergy-All", "value": 13, "unit": "s"}, {"measurement": "Total Dose", "setting": "[1]; Allergy-All", "value": 39, "unit": "s"}, {"measurement": "Total Treatment Time", "setting": "[1]; Allergy-All", "value": 5, "unit": "min"}, {"measurement": "Est. Rate", "setting": "[1]; Allergy-Mild", "value": 5, "unit": "mL/s"}, {"measurement": "Est. Total Dose", "setting": "[1]; Allergy-Mild", "value": 200, "unit": "mL"}, {"measurement": "Number of Doses", "setting": "[1]; Allergy-Mild", "value": "2 #"}, {"measurement": "Single Dose Duration", "setting": "[1]; Allergy-Mild", "value": 15, "unit": "s"}, {"measurement": "Total Dose", "setting": "[1]; Allergy-Mild", "value": 40, "unit": "s"}, {"measurement": "Total Treatment Time", "setting": "[1]; Allergy-Mild", "value": ">0.7", "unit": "min"}, {"measurement": "Est. Rate", "setting": "[1]; Allergy-Moderate", "value": 2, "unit": "mL/s"}, {"measurement": "Est. Total Dose", "setting": "[1]; Allergy-Moderate", "value": 31, "unit": "mL"}, {"measurement": "Number of Doses", "setting": "[1]; Allergy-Moderate", "value": "2 #"}, {"measurement": "Single Dose Duration", "setting": "[1]; Allergy-Moderate", "value": 3, "unit": "s"}, {"measurement": "Total Dose", "setting": "[1]; Allergy-Moderate", "value": 16, "unit": "s"}, {"measurement": "Total Treatment Time", "setting": "[1]; Allergy-Moderate", "value": ">0.2", "unit": "min"}, {"measurement": "Est. Rate", "setting": "[1]; Allergy-Severe", "value": 4, "unit": "mL/s"}, {"measurement": "Est. Total Dose", "setting": "[1]; Allergy-Severe", "value": 156, "unit": "mL"}, {"measurement": "Number of Doses", "setting": "[1]; Allergy-Severe", "value": "2 #"}, {"measurement": "Single Dose Duration", "setting": "[1]; Allergy-Severe", "value": 17, "unit": "s"}, {"measurement": "Total Dose", "setting": "[1]; Allergy-Severe", "value": 46, "unit": "s"}, {"measurement": "Total Treatment Time", "setting": "[1]; Allergy-Severe", "value": ">3.9", "unit": "min"}, {"measurement": "efficacy", "setting": "[1]; allergic rhinitis, occurring in seconds to minutes", "value": "88-100%"}, {"measurement": "adverse after effects of treatment", "setting": "[1]; allergy subjects", "value": "No subjects reported any adverse after effects"}, {"measurement": "onset of symptom relief", "setting": "[1]; allergy, while administering the first dose", "value": "immediate onset of symptom relief within seconds"}, {"measurement": "oral versus nasal administration", "setting": "[1]; oral administration via pursed lips, allergic inflammation extending into the oral cavity", "value": "more effective"}, {"measurement": "time of recurrence of allergy symptoms post-treatment", "setting": "[1]; recurrences", "value": "≥ 3", "unit": "h"}]}]}
